Tests used:
[1] = in vivo; cited from earlier work
[2] = system: generalized epilepsy; settings: eight adult patients with generalized epilepsy; cited from earlier work
[3] = system: Lennox-Gastaut syndrome; settings: CBD in an oily solution, a child with Lennox-Gastaut syndrome; cited from earlier work
[4] = system: seizures; settings: 200 mg/day of pure CBD, four adult patients; cited from earlier work
[5] = system: seizures in mice; settings: after pro-convulsant drugs or an electric current; cited from earlier work
[6] = system: seizures; settings: 200 mg/day of pure CBD, open label, twelve institutionalized adult patients; cited from earlier work
[7] = Solubility of the drug substance in water; format: physicochemical
Source text: Sesame oil was selected as an excipient to solubilize the drug substance.

[8] = system: children and young adults with severe, childhood onset treatment-resistant epilepsy (TRE); test: Expanded access compassionate use program: 50% responders after 12 weeks of CBD added to baseline AED; format: in vivo, human; settings: 12 weeks of treatment

Structure (SMILES) | pro-convulsant effect [1] | reduction of seizures [2] | seizure frequency [3] | seizure freedom / seizure frequency [4] | prevention of seizures [5] | control of seizures [6] | solubility in water [7] | <50% reduction in seizures, proportion of patients, absence seizures ([8]; absence seizures (n = 28)) [%] | >50% reduction in seizures, proportion of patients, absence seizures ([8]; absence seizures (n = 28)) [%] | <50% reduction in seizures, proportion of patients, clonic seizures ([8]; clonic seizures (n = 8)) [%] | >50% reduction in seizures, proportion of patients, clonic seizures ([8]; clonic seizures (n = 8)) [%] | <50% reduction in seizures, proportion of patients, myoclonic seizures ([8]; myoclonic seizures (n = 30)) [%] | >50% reduction in seizures, proportion of patients, myoclonic seizures ([8]; myoclonic seizures (n = 30)) [%] | <50% reduction in seizures, proportion of patients, tonic seizures ([8]; tonic seizures (n = 45)) [%] | >50% reduction in seizures, proportion of patients, tonic seizures ([8]; tonic seizures (n = 45)) [%] | <50% reduction in seizures, proportion of patients, tonic-clonic seizures ([8]; tonic-clonic seizures (n = 65)) [%] | >50% reduction in seizures, proportion of patients, tonic-clonic seizures ([8]; tonic-clonic seizures (n = 65)) [%] | <50% reduction in seizures, proportion of patients, total seizures ([8]; total seizures (n = 137))
CCCCCc1cc(O)c2c(c1)OC(C)(C)[C@@H]1CCC(C)=C[C@@H]21 [THC, Tetrahydrocannabinol] | pro-convulsant |  |  |  |  |  |  |  |  |  |  |  |  |  |  |  |  | 
C=C(C)[C@@H]1CCC(C)=C[C@H]1c1c(O)cc(CCCCC)cc1O [CBD, Cannabidiol] |  | marked reduction of seizures in 4 of the patients | improvement in seizure frequency | two of the four patients became seizure free | able to prevent seizures in mice | ineffective in controlling seizures | insoluble in water | 36 | 64 | 50 | 50 | 57 | 43 | 51 | 49 | 37 | 43 | 54% (n = 74)
